{"source": "patent EP2601963B1", "about": "“N-ISOVALEROYL-L-GLUTAMYL-L-TRYPTOPHAN AS AN AGENT INHIBITING THE FORMATION OF ULCERS IN THE STOMACH AND THE DUODENUM” (Obshestvo S Ogranichennoj Otvetstvennostju \"CytoNIR\", priority 2010, dated 2015)", "key": {"[1]": {"assay": "Acute toxicity, single intramuscular dose", "type": "in vivo, white outbred male mice", "details": "single-dose administration, dose exceeding the recommended therapeutic dose more than 100 times", "method": "Total toxicity of N-isovaleroyl-L-glutamyl-L-tryptophan was studied in accordance with the requirements of The Handbook of the Experimental (non-clinical) Studies of Novel Pharmaceutical Substances (2000): single dose acute toxicity and sub-acute and chronic toxicity during long-term administration of the dipeptide.\nAcute toxicity testing was conducted on 60 white outbred male mice with 20 - 23 g body weights. The animals were divided into 6 equal groups. Single intramuscular doses of the medication were administered to the animals in the amount of 0.1 ml in the following doses: 1 mg/kg, 5 mg/kg, 10 mg/kg, and 20 mg/kg in sterile 0.9 % NaCl solution. The animals in the control group were receiving the same amounts of 0.9 % NaCl solution."}, "[2]": {"test_system": "stress-induced gastric ulcers", "assay": "Water-immersion stress model: gastric lesions, preventive treatment", "type": "in vivo, male Wistar rats", "set-up": "key to GA1 (gastroprotective activity calculated for number of lesions): GA1 = PI of control group / PI of treated group; key to GA2 (gastroprotective activity calculated for lesion size): GA2 = UI of control group / UI of treated group; key to Pauls Index: PI = mean lesions per group × % animals with lesions / 100; key to Ulcer Index: UI = mean lesion area in group × % animals with lesions / 100", "method": "All studies were conducted on male Wistar rats weighing 220 ± 20 g, obtained from Rappolovo nursery (Leningrad oblast). For 14 days prior to the experiment, the animals were held in isolation. The animals were handled in accordance with the European Convention for the Protection of Vertebrate Animals used for Experimental and Other Scientific Purposes (Strasburg, 1986). The animals were held in standard plastic cages and fed a standard diet of PK120-3 (granulated feed in accordance with order # 1179 M3 USSR 10/10/1983) with a free access to water.\nIn each series, the animals were divided into experimental and control groups with 10 rats per group. The animals in the experimental groups were orally administered the claimed preparation or a comparator drug, and the control group animals received distilled water in the same amount.\nThe experimental animals were divided into 5 groups, 10 animals each. The animals received the following therapy: • control group received distilled water per os; • experimental group 1 received 0.1 mkg/kg N-isovaleroyl-L-glutamyl-L-tryptophan; • experimental group 2 received 10 mkg/kg N-isovaleroyl-L-glutamyl-L-tryptophan; • experimental group 3 received 200 mkg/kg of the comparator drug Sucralfate; • experimental group 4 received 50 mkg/kg of the comparator drug Misoprostol;\nThe experiment was conducted as follows: • The proposed drug, comparator drugs, and distilled water were administered once daily over 7 days, and on the day of the ulcerogenic stress induction one hour prior to the stress.\nThe rats deprived of food for 18 hrs. were placed into special cases and immersed in water vertically to the level of their xyphoids. The animals were held in this position for 5 hrs. at 23° C water temperature. After that, the animals were removed from the experiment.\nAnimals' body weight changes were monitored throughout the experiment. The experimental animals were then sacrificed by decapitation, and their blood was collected in test tubes. The stomachs were extracted, dissected along the major curve, rinsed with cold saline solution, and the mucosa was carefully examined through a magnifying glass under bright lights. The mucosa was inspected for color, the presence of hyperemia and its intensity. The number of lesions, which were differentiated into small round (less than 1 mm), linear, and large lesions (more than 1mm) and the size of the area they covered were calculated. The average number of lesions per one animal in a group and the percentage of animals with ulcers were also calculated. Pauls Index (PI) was used as an integral indicator of the number of lesions and was calculated as follows: • PI = average number of lesions in a group x % of animals with lesions/100 [Pauls F., Wick A.M.,Mac. Key E.M. et al. An assau method for anti ulcer substances // Gastroenterology.- 1947. #8.- p.p.774 - 782]. Ulcer index UI was calculated as: UI = average lesion area size in the group x % of animals with lesions/100; gastroprotective activity GA1 was calculated as: GA1 = PI of the control group/PI of the experimental group, GA2 = UI of the control group/UI of the experimental group. The proposed drug was considered active when GA ≥ 2."}, "[3]": {"test_system": "indomethacin-induced ulcers", "assay": "Indomethacin-induced ulcer model, therapeutic treatment: healing of gastric lesions", "type": "in vivo, male Wistar rats", "set-up": "key to GA1 (gastroprotective activity calculated for number of lesions): GA1 = PI of control group / PI of experimental group; key to GA2 (gastroprotective activity calculated for lesion size): GA2 = UI of control group / UI of experimental group; key to Ulcer Index: UI = average lesion area in group × % animals with lesions / 100; Lesion Size: unit not given here"}, "[4]": {"details": "Indomethacin 30 mg/kg + 1 mkg/kg, treatment 5 days"}}}
{"substance": "N-isovaleroyl-L-glutamyl-L-tryptophan [VGT preparation]", "values": [{"measurement": "toxic reactions", "setting": "[1]", "result": "did not cause any toxic reactions"}, {"measurement": "# Lesions", "setting": "[2]; 0.1 mkg/kg + stress", "result": "15.4 ± 2.1"}, {"measurement": "% Animals with Ulcers", "setting": "[2]; 0.1 mkg/kg + stress", "result": 90, "unit": "%"}, {"measurement": "GA1 (gastroprotective activity calculated for number of lesions)", "setting": "[2]; 0.1 mkg/kg + stress", "result": 1.59}, {"measurement": "GA2 (gastroprotective activity calculated for lesion size)", "setting": "[2]; 0.1 mkg/kg + stress", "result": 2.58}, {"measurement": "Large round Amt.", "setting": "[2]; 0.1 mkg/kg + stress", "result": "6.9 ± 1.4"}, {"measurement": "Large round Size", "setting": "[2]; 0.1 mkg/kg + stress", "result": "4.4 ± 1.1"}, {"measurement": "Lesion Size", "setting": "[2]; 0.1 mkg/kg + stress", "result": "8.7 ± 2.0"}, {"measurement": "Linear Amt.", "setting": "[2]; 0.1 mkg/kg + stress", "result": "1.5 ± 0.7"}, {"measurement": "Linear Size", "setting": "[2]; 0.1 mkg/kg + stress", "result": "2.4 ± 1.0"}, {"measurement": "Pauls Index", "setting": "[2]; 0.1 mkg/kg + stress", "result": 13.9}, {"measurement": "Small round Amt.", "setting": "[2]; 0.1 mkg/kg + stress", "result": "7.0 ± 1.4"}, {"measurement": "Small round Size", "setting": "[2]; 0.1 mkg/kg + stress", "result": "1.9 ± 0.4"}, {"measurement": "Total Amt.", "setting": "[2]; 0.1 mkg/kg + stress", "result": "15.4 ± 2.1"}, {"measurement": "Total Size", "setting": "[2]; 0.1 mkg/kg + stress", "result": "8.7 ± 2.0"}, {"measurement": "Ulcer Index", "setting": "[2]; 0.1 mkg/kg + stress", "result": 7.83}, {"measurement": "# Lesions", "setting": "[2]; 10 mkg/kg + stress", "result": "16.3 ± 1.5"}, {"measurement": "% Animals with Ulcers", "setting": "[2]; 10 mkg/kg + stress", "result": 100, "unit": "%"}, {"measurement": "GA1 (gastroprotective activity calculated for number of lesions)", "setting": "[2]; 10 mkg/kg + stress", "result": 1.36}, {"measurement": "GA2 (gastroprotective activity calculated for lesion size)", "setting": "[2]; 10 mkg/kg + stress", "result": 2.08}, {"measurement": "Lesion Size", "setting": "[2]; 10 mkg/kg + stress", "result": "9.7 ± 1.2"}, {"measurement": "Pauls Index", "setting": "[2]; 10 mkg/kg + stress", "result": 16.3}, {"measurement": "Ulcer Index", "setting": "[2]; 10 mkg/kg + stress", "result": 9.7}, {"measurement": "Large round Amt.", "setting": "[2]; 10.0 mkg/kg + stress", "result": "5.7 ± 1.1"}, {"measurement": "Large round Size", "setting": "[2]; 10.0 mkg/kg + stress", "result": "3.4 ± 0.7"}, {"measurement": "Linear Amt.", "setting": "[2]; 10.0 mkg/kg + stress", "result": "1.4 ± 0.3"}, {"measurement": "Linear Size", "setting": "[2]; 10.0 mkg/kg + stress", "result": "3.9 ± 1.4"}, {"measurement": "Small round Amt.", "setting": "[2]; 10.0 mkg/kg + stress", "result": "9.2 ± 1.5"}, {"measurement": "Small round Size", "setting": "[2]; 10.0 mkg/kg + stress", "result": "2.5 ± 0.4"}, {"measurement": "Total Amt.", "setting": "[2]; 10.0 mkg/kg + stress", "result": "16.3 ± 1.5"}, {"measurement": "Total Size", "setting": "[2]; 10.0 mkg/kg + stress", "result": "9.7 ± 1.2"}, {"measurement": "size of lesions smaller than in the control group animals", "setting": "[2]; stress, both doses", "result": "2.1 - 2.6 times"}, {"measurement": "reduced the size of large lesions", "setting": "[2]; stress, depending on the dose (0.1 mkg/kg by Table 1)", "result": 2.7, "unit": "times"}, {"measurement": "reduced the size of large lesions", "setting": "[2]; stress, depending on the dose (10 mkg/kg by Table 1)", "result": 3.4, "unit": "times"}, {"measurement": "Pauls index lower than that of the control animals", "setting": "[3]; 0.1 mkg/kg, treatment after Indomethacin", "result": 2, "unit": "times"}, {"measurement": "# Lesions", "setting": "[3]; [4]", "result": "4.1 ± 0.8"}, {"measurement": "% Animals with Ulcers", "setting": "[3]; [4]", "result": 100, "unit": "%"}, {"measurement": "GA1 (gastroprotective activity calculated for number of lesions)", "setting": "[3]; [4]", "result": 2.0}, {"measurement": "GA2 (gastroprotective activity calculated for lesion size)", "setting": "[3]; [4]", "result": 2.6}, {"measurement": "Lesion Size", "setting": "[3]; [4]", "result": "12.3 ± 3.5"}, {"measurement": "PI", "setting": "[3]; [4]", "result": 4.1}, {"measurement": "Ulcer Index", "setting": "[3]; [4]", "result": 12.3}, {"measurement": "GA2 (gastroprotective activity calculated for lesion size)", "setting": "[3]; Indomethacin 30 mg/kg + 10 mkg/kg, treatment 5 days", "result": 1.4}]}
